Reference: patent US6015820A, “4-Aryl-thio-pyridin-2(1H)-ones, medicines containing them and their uses in the treatment of illnesses linked to HIV” (priority 1995, dated 2000)
Where two headings read alike, the source gives them in different places.

What was measured:
Type in all cases: cell-based
[1] = test system: HIV-1 LAI; experiment: anti-HIV-1 activity: replication of HIV-1 LAI on CEM-SS cells
Description: The CEM-SS and the HIV-1 resistant to Nevirapine (N119) carrying a point mutation at codon 181 of the IT, were supplied respectively by P. NARA and D. RICHMAN through the intermediary of the AIDS Research and Reference Reagent Program, Division of AIDS, NIAID, NIH (USA) (Catalogue references : No. 776 and No. 1392).
The virus production was measured by quantifying the activity of the inverse transcriptase associated with viral particles released into the culture supernatant. In short, cells were infected with 100 TCID50 for 30 minutes; after adsorption of the virus, unbound particles were removed by two washings and the cells were cultivated in the presence of different concentrations of the compounds tested for 5 days before determining the viral production. The concentration inhibiting 50% of the viral multiplication (IC50) came from the computer plot of the median effect of the dose effect results (Chou et al. Elsevier Science Publishers, Cambridge U.K. (1985), 19-28).

[2] = cytotoxicity on non-infected cells (MTT test); details: human; Table 2; non-infected CEM-SS cells, MTT, 5 days
Description: In parallel experiments, the cytotoxicity of the molecules was measured on non-infected cells, after an incubation of 5 days in the presence of these molecules, by using a […] titration (MTT test) based on the ability of the mitochondrial dehydrogenases of the living cells to reduce 3-(4,5-dimethylthiazol-2-yl)-2,5-diphenyltetrazolium bromide in formazan (Mosmann et al. J. Immunol. Methods ([…]), 65, 55-63). The concentration cytotoxic at 50% (CC50) is the concentration at which the DO540 has been reduced to half and is calculated by using the program mentioned above.

[3] = test system: isolated virion HIV-1LAI; experiment: infectivity of the isolated virion after treatment with inhibitors (HT4LacZ cells)
Description: H9 cells chronically infected with HIV-1LAI (10^8 /ml) were cocultivated with MT4 cells (10^8 /ml) for 48 hours in an RMPI medium supplemented by 10% of calf foetal serum (CFS). The cells were then removed by centrifugation and then the supernatant liquid was filtered (0.45 μm) to remove residual cells and cell debris.
After having been incubated with the various inhibitors, the viral supernatants (200 μl) were deposited in the filtering part of a VectaSpin tube (WHATMAN) fitted with an ANAPORE membrane of porosity 0.02 μm. For 10 minutes they were subjected to centrifugation, the acceleration of which reached 6000 g at the filtering membrane. The viral residuums thereby obtained (10-15 μl ) were washed 3 times under the same conditions with 500 μl of RPMI then restored to their initial volumes with RPMI containing 10% of CFS.
The HT4LacZ-1 cells were kept in a DMEM medium (glucose 4.5 g/l) supplemented with 10% of calf foetal serum in the presence of Gentamycin (50 mg/l). These cells stemmed from Hela cells in which had been cloned, on the one hand the gene coding for the human CD4 so as to render them susceptible to infection by the HIV (Chesebro and Wehrly, 1988, J. Virol., 62, 3779-3788), and on the other hand the gene for β-Galactosidase which, placed under the dependent of the LTR of the HIV-1 served as a marker for the viral infection (Rocancourt et al. (1990) J. Virol. 1990 64-6, 2660-2688). When the virus infects such cells after its integration into the cellular genome, the production of the regulatory protein TAT activates the LTR of the HIV. The result is an activation of the gene of β-Galactosidase which leads to its production in the intracellular medium and more particularly in the nucleus. It is this protein that serves as a marker of the infection.
The evening of day 0, the HT4LacZ-1 cells were diluted at the rate of 75000 cells per ml of medium. 100 μl of this suspension was then distributed over a flat bottomed plate with 96 wells and was cultivated overnight at 37° C. (5% of CO2).
The morning of day 1, the supernatant liquid was removed by aspiration. Each well was then complemented with 200 μl of the viral supernatant dilutions to be tested. Each dilution was made in a DMEM medium (glucose 4.5 g/l) supplemented with 10% of CFS. The plates were then placed in an environment at 37° C. in the presence of 5% of CO2.
After 48 hours of culture, the supernatant liquid was aspirated, then each well was washed 3 times in PBS before being complemented with 200 μl of developing buffer (Tris-HCl 50 mM pH=8.5, ONPG 5 mg/ml β-mercapto-ethanol 7 μl/ml Triton×100 0.05%). After 4 hours of incubation at 37° C., the optical density of each well was measured.
The concentration of each of the inhibitors of the IT of the HIV-1 was adjusted to 50 mM in DMSO. The later dilutions were carried out on RPMI 1640. 2 μl of suitable dilutions of each of these inhibitors were added to 198 μl of a freshly unfrozen viral suspension. After 3 hours of incubation at ambient temperature, these suspensions were filtered on 0.02 μ VecraSpin tubes, then washed 3 times with 500 μl of RPMI 1640. The viral residuums were then adjusted to 200 μL with the culture medium (RPMI-10% CFS), then tested with regard to their infectivity on HT4LacZ cells.

[4] = Human immunodeficiency virus 1, 120 h, Table 2, HIV-1 LAI, CEM-SS cells, 5 days, read-out: IC50, anti-HIV-1 activity
[5] = Table 2, HIV-1 LAI, CEM-SS cells
[6] = Human immunodeficiency virus 1, 1 μM inhibitor, 3 h, 100 TCID50, compared with viral supernatant subjected to same treatments, mean of 1 to 4 experiments, read-out: Activity of the isolated virions after treatment
[7] = Human immunodeficiency virus 1, 10 μM inhibitor, 3 h, 100 TCID50, compared with viral supernatant subjected to same treatments, mean of 1 to 4 experiments, read-out: Activity of the isolated virions after treatment
[8] = Human immunodeficiency virus 1, 3 h, read-out: Activity of the isolated virions after treatment

IC50 [1, 4] [µM]	SMILES	CC50 at 120 h [2] [µM]	SI (selectivity index) [1, 5]	other results
18	Cc1c[nH]c(=O)c([N+](=O)[O-])c1Sc1ccccn1 [Compound 9h, 5-methyl-3-nitro-4-(2-pyridyl) thio-pyridin-2(1H)-one]	28.5	> 1	
7.5	CCOC(=O)Nc1c(Sc2cc(C)cc(C)c2)c(C)c[nH]c1=O [Compound 11f, 5-methyl-3-N-ethoxycarbamoyl-4-(3', 5'-dimethylphenyl)thio-pyridin-2(1H)-one]	> 100	> 13	
> 10	CCCCCCC(=O)Nc1c(Sc2cc(C)cc(C)c2)c(C)c[nH]c1=O [Compound 11d, 3-heptanamido-5-methyl-4-(3', 5'-dimethylphenyl)thio-pyridin-2(1H)-one]	> 10		
> 100	Cc1cc(O)nc(Sc2c(C)cnc(O)c2[N+](=O)[O-])n1 [Compound 9b, 5-methyl-3-nitro-4-(4'-hydroxy-6'-methylpyrimidin-2-yl)thiopyridin-2(1H)-one]	> 100		
17.5	Cc1cc(C)nc(Sc2c(C)c[nH]c(=O)c2[N+](=O)[O-])n1 [Compound 9a, 5-methyl-3-nitro-4-(4', 6'-dimethylpyrimidin-2-yl)thiopyridin-2(1H)-one]	19.5	> 1	
56	Cc1c[nH]c(=O)c([N+](=O)[O-])c1Sc1nccn1C [Compound 9g, 5-methyl-3-nitro-4-(N-methylimidazol-2-yl)thio-pyridin-2(1H)-one]	68.5	> 1	
14.5	Cc1cnc(O)c([N+](=O)[O-])c1Sc1nc2ccccc2s1 [Compound 9e, 5-methyl-3-nitro-4-(benzothiazol-2-yl)thio-pyridin-2(1H)-one]	13.5		
17	Cc1c[nH]c(=O)c([N+](=O)[O-])c1SC1=NCCS1 [Compound 9f, 5-methyl-3-nitro-4-(thiazolin-2-yl) thio-pyridin-2(1H)-one]	21.5	> 1	
> 10	Cc1cc(C)cc(Sc2c(C)cnc(O)c2NC(=O)Cc2ccccc2)c1 [Compound 11e, 5-methyl-3-phenylacetamido-4-(3', 5'-dimethylphenyl)thio-pyridin-2(1H)-one]	> 10		
0.02	CCOCc1c[nH]c(=O)c(N)c1Sc1cc(C)cc(C)c1 [Compound 8g, 3-amino-5-ethoxymethyl-4-(3', 5'-dimethylphenyl)thio-pyridin-2(1H)-one]	> 10	> 500	
6.6	Cc1cc(C)cc(Sc2c(C)c[nH]c(=O)c2NC=O)c1 [Compound 11a, 3-formamido-5-methyl-4-(3', 5'-dimethylphenyl)thio-pyridin-2(1H)-one]	> 100	> 15	
43.5	Cc1c[nH]c(=O)c([N+](=O)[O-])c1Sc1nc2ccccc2[nH]1 [Compound 9c, 5-methyl-3-nitro-4-(benzimidazol-2-yl)thiopyridin-2(1H)-one]	54.5	> 1	
5.5	Cc1c[nH]c(=O)c([N+](=O)[O-])c1Sc1nc2ccccc2o1 [Compound 9d, 5-methyl-3-nitro-4-(benzoxazol-2-yl)thiopyridin-2(1H)-one]	16	> 2	

Continued, compound first:

SMILES	IC50 [1, 4] [µM]	CC50 at 120 h [2] [µM]	SI (selectivity index) [1, 5]	other results
Cc1cnc(O)c(N)c1Sc1nc2ccccc2o1 [Compound 10, 3-amino-5-methyl-4-(benzoxazol-2-yl)thio-pyridin-2(1H)-one]	8	7.5		
Nc1ccn([C@@H]2CS[C@H](CO)O2)c(=O)n1 [Compound 3TC]				activity at 1 µM [3, 6]: 100%; activity at 10 µM [3, 7]: 100%; activity on the isolated virion (in words) [3]: totally inactive
CCOCc1c[nH]c(=O)c([N+](=O)[O-])c1Sc1cc(C)cc(C)c1 [Compound 7g, 5-ethoxymethyl-3-nitro-4-(3', 5'-dimethylphenyl)thio-pyridin-2(1H)-one]	0.005	> 10	> 2000	
Cc1cn([C@H]2C[C@H](N=[N+]=[N-])[C@@H](CO)O2)c(=O)[nH]c1=O [AZT, reference compound]	0.003	> 100	> 33333	IC50 ([1]; Human immunodeficiency virus 1, CEM-SS, Table 4, HIV-1 (LA1)/CEMSS, read-out: IC50): 0.00084 µM; activity at 1 µM [3, 8]: 99%; activity at 10 µM [3, 8]: 99%; activity on the isolated virion (in words) [3]: totally inactive
O=c1[nH]cnc2c1ncn2[C@H]1CC[C@@H](CO)O1 [ddl]				activity at 1 µM [3, 6]: 100%; activity at 10 µM [3, 7]: 100%; activity on the isolated virion (in words) [3]: totally inactive
Cc1cn([C@H]2C=C[C@@H](CO)O2)c(=O)[nH]c1=O [d4T]				activity at 1 µM [3, 8]: 130%; activity at 10 µM [3, 8]: 127%; activity on the isolated virion (in words) [3]: totally inactive
Cc1ccnc2c1NC(=O)c1cccnc1N2C1CC1 [Nevirapine]				activity at 0.1 µM ([3]; Human immunodeficiency virus 1, 0.1 μM inhibitor, 3 h, 100 TCID50, compared with viral supernatant subjected to same treatments, mean of 1 to 4 experiments, read-out: Activity of the isolated virions after treatment): 86%; activity at 1 µM [3, 6]: 86%; activity at 10 µM [3, 7]: 111%; activity on the isolated virion (in words) [3]: totally inactive
Cc1cnc(O)c([N+](=O)[O-])c1Sc1ccccc1 [Compound 7d, 5-methyl-3-nitro-4-phenylthio-pyridin-2(1H)-one]	> 10	> 10		
